Data: patent US20150366862A1, “Use of flibanserin for the treatment of pre-menopausal sexual desire disorders” (Sprout Pharmaceuticals, Inc., priority 2005, published 2015)

Experiments:
[1] = system: pre-menopausal female patients with HSDD; assay: twelve-week randomized, double-blind, placebo-controlled proof of concept trial in pre-menopausal female patients with HSDD (IVR-FSBQ); type: in vivo, human
Method: This trial was designed as a prospective, multi-center, twelve-week, randomized, double-blind, placebo-controlled, proof of concept, parallel-group trial comparing the effects of flibanserin (maximum total daily dose: 100 mg b.i.d.) to placebo in pre-menopausal female patients with HSDD. Seventy-five patients were to be randomized to each treatment group.
This proof of concept trial was designed to assess whether twelve weeks of flibanserin treatment produced a clinically meaningful therapeutic response in healthy female patients with HSDD (as determined by DSM-IV criteria). Efficacy for flibanserin was assessed versus a parallel placebo group.
After a Screening period (no treatment) of approximately twenty-eight days, eligible patients were randomized into the twelve week, double-blind portion of the trial during which they were to take study medication in the morning and in the evening about 12 hours apart.
Patients must have been pre-menopausal females who were 18 to 45 years of age with the primary diagnosis of HSDD, acquired type, according to DSM-IV criteria. The current episode must have been at least 24 weeks in duration by the Baseline Visit.
The baseline severity criterion was from the Arizona Sexual Experiences Scale, requiring a score of 5 or 6 (very weak or no sex drive) on the sex drive item. […]

5-HT-1A receptor = target: T1, 5-HT-1A receptor (Homo sapiens, UniProt P08908); details: background statement, no value given; cited from earlier work
T1 sequence (P08908 1-422): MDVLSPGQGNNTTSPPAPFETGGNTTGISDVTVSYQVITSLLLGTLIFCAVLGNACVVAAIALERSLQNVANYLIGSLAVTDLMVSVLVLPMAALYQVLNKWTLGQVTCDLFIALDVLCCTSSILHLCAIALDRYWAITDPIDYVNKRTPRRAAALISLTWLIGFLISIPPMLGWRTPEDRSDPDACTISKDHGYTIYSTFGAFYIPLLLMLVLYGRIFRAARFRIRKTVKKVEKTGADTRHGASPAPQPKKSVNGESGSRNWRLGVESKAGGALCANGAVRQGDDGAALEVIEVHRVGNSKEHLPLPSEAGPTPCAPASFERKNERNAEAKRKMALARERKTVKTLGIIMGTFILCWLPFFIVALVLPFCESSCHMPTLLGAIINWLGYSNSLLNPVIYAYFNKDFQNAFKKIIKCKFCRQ

5-HT2-receptor = details: background statement, no value given; cited from earlier work

For `O=c1[nH]c2ccccc2n1CCN1CCN(c2cccc(C(F)(F)F)c2)CC1` [flibanserin, 1-[2-(4-(3-trifluoromethyl-phenyl)piperazin-1-yl)ethyl]-2,3-dihydro-1H-benzimidazol-2-one], the “IVR-FSBQ Frequency of Sexual Thoughts, monthly mean change from baseline vs placebo” value ([1]; pre-menopausal women with HSDD, 50 mg b.i.d. (up to 100 mg b.i.d. from Week 8), 12 weeks, FAS, LOCF, FIG. 1) is listed as “clearly demonstrates the efficacy”, the “sexual desire enhancing properties” value ([1]; studies of pre-menopausal female patients suffering from sexual dysfunction) is listed as “displays sexual desire enhancing properties” and the “affinity for the 5-HT-1A receptor” value (5-HT-1A receptor) is listed as “shows affinity”. For the same compound, the “affinity for the 5-HT2-receptor” value (5-HT2-receptor) was “shows affinity”.
